What was measured:
[1] = tested on: style-specific S RNase of Fuji apple; assay: Inhibition of the activity of a style-specific S RNase by the agents; type: biochemical; conditions: for inhibiting effect for a style-specific S RNase: enzyme assay, result in words; for OD (2.0 mM): optical density at 260 nm (A260), agent 2.0 mM, no treatment 1.10
Method: Inhibition of S RNase activity by an agent of the present invention was measured as follows: The standard solution of 500 μL of 10 mM sodium phosphate (pH 7.0) with an agent (2.0 mM), and 500 μL of torula yeast rRNA (5 mg/mL) was pre-incubated for 10 min at 37° C. To the substrate solution, the 20 μL of the style-specific S RNase (200 ng) of Fuji apple was added, then the solution was incubated for 30 min at 37° C. A fraction of 200 μL was collected and 40 μL of stop buffer (ice-cold 25% HCIO4, 0.75% uranyl acetate) was added, then mixed and centrifuged at 12,000 rpm for 5 min. And 50 μL of the supernatant was diluted with 950 μL of dd H2O, then the solution was centrifuged and measured the optical density at 260 nm (A260) (Singh A. et al., Plant Physilolgy, 96: 61-68,1991).

[2] = tested on: Hongro apple; assay: Breakdown of the self-incompatibility in Hongro apple (self-pollination rate, field); type: in vivo; conditions: 25 days after the treatment
Method: In the field application experiment, Hongro apple (the Rosaceae) which has a very low self-pollination rate (<5%) was isolated single-genetically by covering up whole plants with a fine-meshed net to exclude any pollinating insects. The agent of the present invention was treated enough to get-wet flowers at various concentrations with a micro-spray at 9:00-11:00 AM. The target of the agent was the first-blooming primary apple flower. The self-pollination rate was investigated 25 days after the treatment and compared with no treatment and artificial cross-pollination.

Row | Molecule | OD (2.0 mM) [1] | other results
1 | O=S(=O)([O-])[O-].[Ca+2] [CaSO4, reference compound] | – | inhibiting effect for a style-specific S RNase [1]: didn't show any positive inhibiting effect
2 | COCCOCC(=O)[O-].COCCOCC(=O)[O-].[Cu+2] [Cu(II) 2-(2-methoxyethoxy) acetate] | – | self-pollination rate ([2]; concentration 0.01 mM): >10%; self-pollination rate ([2]; concentration 0.03 mM): >30%; self-pollination rate ([2]; concentration 0.10 mM): >50%; self-pollination rate ([2]; concentration 0.30 mM): >50%; self-pollination rate ([2]; concentration 1.0 mM): >50%
3 | COCCOCCOCC(=O)[O-].COCCOCCOCC(=O)[O-].[Cu+2] [Cu(II) 2-{2-(2-methoxyethoxy)ethoxy} acetate] | – | self-pollination rate ([2]; concentration 0.01 mM): >10%; self-pollination rate ([2]; concentration 0.03 mM): >20%; self-pollination rate ([2]; concentration 0.10 mM): >50%; self-pollination rate ([2]; concentration 0.30 mM): >50%; self-pollination rate ([2]; concentration 1.0 mM): >50%
4 | CCOCCOc1ccc(S(=O)(=O)[O-])cc1.CCOCCOc1ccc(S(=O)(=O)[O-])cc1.[Cu+2] [Cu(II) 4-(2-ethoxyethoxy) benzene sulfonate] | 0.72 | –
5 | COCCOCCOc1ccc(S(=O)(=O)[O-])cc1.COCCOCCOc1ccc(S(=O)(=O)[O-])cc1.[Cu+2] [Cu(II) 4-{2-(2-methoxyethoxy)ethoxy} benzene sulfonate] | 0.68 | –
6 | C=CC(=O)[O-].C=CC(=O)[O-].[Cu+2] [Cu(II) Acrylate] | 0.69 | –
7 | O=S(=O)([O-])c1ccccc1.O=S(=O)([O-])c1ccccc1.[Cu+2] [Cu(II) Benzene sulfonate] | 0.72 | –
8 | Cc1ccc(S(=O)(=O)[O-])cc1.Cc1ccc(S(=O)(=O)[O-])cc1.[Cu+2] [Cu(II) p-toluene sulfonate] | 0.72 | –
9 | O=C[O-].O=C[O-].[Cu+2] [Cu(Il) Formate] | 0.74 | –
10 | O=S(=O)([O-])[O-].[K+].[K+] [K2SO4, reference compound] | – | inhibiting effect for a style-specific S RNase [1]: didn't show any positive inhibiting effect
11 | O=S(=O)([O-])[O-].[Li+].[Li+] [Li2SO4, reference compound] | – | inhibiting effect for a style-specific S RNase [1]: didn't show any positive inhibiting effect
12 | O=S(=O)([O-])[O-].[Na+].[Na+] [Na2SO4, reference compound] | – | inhibiting effect for a style-specific S RNase [1]: didn't show any positive inhibiting effect
13 | CCOCCOCC(=O)[O-].CCOCCOCC(=O)[O-].[Zn+2] [Zn(II) 2-ethoxy ethoxy acetate] | – | self-pollination rate ([2]; concentration 0.01 mM): >5%; self-pollination rate ([2]; concentration 0.03 mM): >20%; self-pollination rate ([2]; concentration 0.10 mM): >50%; self-pollination rate ([2]; concentration 0.30 mM): >60%; self-pollination rate ([2]; concentration 1.0 mM): >60%
14 | COCCOCCOCC(=O)[O-].COCCOCCOCC(=O)[O-].[Zn+2] [Zn(II) 2-{2-(2-methoxyethoxy)ethoxy} acetate] | – | self-pollination rate ([2]; concentration 0.01 mM): >10%; self-pollination rate ([2]; concentration 0.03 mM): >30%; self-pollination rate ([2]; concentration 0.10 mM): >50%; self-pollination rate ([2]; concentration 0.30 mM): >50%; self-pollination rate ([2]; concentration 1.0 mM): >50%
15 | CCOCCOc1ccc(S(=O)(=O)[O-])cc1.CCOCCOc1ccc(S(=O)(=O)[O-])cc1.[Zn+2] [Zn(II) 4-(2-ethoxyethoxy) benzene sulfonate] | 0.72 | –
16 | COCCOCCOc1ccc(S(=O)(=O)[O-])cc1.COCCOCCOc1ccc(S(=O)(=O)[O-])cc1.[Zn+2] [Zn(II) 4-{2-(2-methoxyethoxy)ethoxy}benzene sulfonate] | 0.68 | –
17 | O=S(=O)([O-])c1ccccc1.O=S(=O)([O-])c1ccccc1.[Zn+2] [Zn(II) Benzene sulfonate] | 0.74 | –
18 | O=C[O-].O=C[O-].[Zn+2] [Zn(II) Formate] | 0.75 | –
19 | C[C@H](O)C(=O)O.C[C@H](O)C(=O)O.[Zn] [Zn(II) L-lactate] | 0.73 | –
20 | Cc1ccc(S(=O)(=O)[O-])cc1.Cc1ccc(S(=O)(=O)[O-])cc1.[Zn+2] [Zn(II) p-toluene sulfonate] | 0.72 | –
21 | Ce2SO4 [reference compound] | – | inhibiting effect for a style-specific S RNase [1]: didn't show any positive inhibiting effect

More lines, main results first:

Row | OD (2.0 mM) [1] | Molecule | other results
22 | 0.64 | COCCOC(C)C(=O)[O-].COCCOC(C)C(=O)[O-].[Cu+2] (stereo not shown) [Cu(II) 2-(2-methoxyethoxy)propionate, Cu(II) 2-(2-methoxyethoxy) propionate] | –
23 | 0.67 | CCCOCCOCCOCC(=O)[O-].CCCOCCOCCOCC(=O)[O-].[Cu+2] [Cu(II) 2-(2-propoxyethoxy)ethoxyacetate, Cu(II) 2-(2-propoxyethoxy) ethoxyacetate] | –
24 | 0.72 | COC(C)C(=O)[O-].COC(C)C(=O)[O-].[Cu+2] (stereo not shown) [Cu(II) 2-methoxypropionate] | –
25 | 0.72 | CCCOC(C)C(=O)[O-].CCCOC(C)C(=O)[O-].[Cu+2] (stereo not shown) [Cu(II) 2-propoxypropionate] | –
26 | 0.61 | COCCOCCOC(C)C(=O)[O-].COCCOCCOC(C)C(=O)[O-].[Cu+2] (stereo not shown) [Cu(II) 2-{2-(2-methoxyethoxy)ethoxy} propionate] | –
27 | 0.66 | COCCOCCOCCOCC(=O)[O-].COCCOCCOCCOCC(=O)[O-].[Cu+2] [Cu(II) 2-{2-(2-methoxyethoxy)ethoxy}ethoxyacetate] | –
28 | 0.70 | CC(=O)[O-].CC(=O)[O-].[Cu+2] [Cu(II) Acetate] | –
29 | 0.69 | CCCC(=O)[O-].CCCC(=O)[O-].[Cu+2] [Cu(II) Butyrate] | –
30 | 0.72 | C[C@H](O)C(=O)[O-].C[C@H](O)C(=O)[O-].[Cu+2] [Cu(II) L-lactate] | –
31 | 0.72 | CCOCC(=O)[O-].CCOCC(=O)[O-].[Cu+2] [Cu(II) ethoxyacetate] | –
32 | 0.72 | COCC(=O)[O-].COCC(=O)[O-].[Cu+2] [Cu(II) methoxyacetate] | –
33 | 0.73 | CCCOCC(=O)[O-].CCCOCC(=O)[O-].[Cu+2] [Cu(II) propoxyacetate] | –
34 | 0.61 | COCCOC(C)C(=O)[O-].COCCOC(C)C(=O)[O-].[Zn+2] (stereo not shown) [Zn(II) 2-(2-methoxyethoxy)propionate, Zn(II) 2-(2-methoxyethoxy) propionate] | –
35 | 0.69 | CCCOCCOCCOCC(=O)[O-].CCCOCCOCCOCC(=O)[O-].[Zn+2] [Zn(II) 2-(2-propoxyethoxy)ethoxyacetate, Zn(II) 2-(2-propoxyethoxy) ethoxyacetate] | –
36 | 0.73 | COC(C)C(=O)[O-].COC(C)C(=O)[O-].[Zn+2] (stereo not shown) [Zn(II) 2-methoxypropionate] | –
37 | 0.72 | CCCOC(C)C(=O)[O-].CCCOC(C)C(=O)[O-].[Zn+2] (stereo not shown) [Zn(II) 2-propoxypropionate] | –
38 | 0.67 | COCCOCCOCCOCC(=O)[O-].COCCOCCOCCOCC(=O)[O-].[Zn+2] [Zn(II) 2-{2-(2-methoxyethoxy)ethoxy} ethoxyacetate] | –
39 | 0.62 | COCCOCCOC(C)C(=O)[O-].COCCOCCOC(C)C(=O)[O-].[Zn+2] (stereo not shown) [Zn(II) 2-{2-(2-methoxyethoxy)ethoxy}propionate] | –
40 | 0.71 | CC(=O)[O-].CC(=O)[O-].[Zn+2] [Zn(II) Acetate] | –
41 | 0.68 | CCCC(=O)[O-].CCCC(=O)[O-].[Zn+2] [Zn(II) Butyrate] | –
42 | 0.73 | CCOCC(=O)[O-].CCOCC(=O)[O-].[Zn+2] [Zn(II) ethoxyacetate] | –
43 | 0.70 | C=C(C)C(=O)[O-].C=C(C)C(=O)[O-].[Zn+2] [Zn(II) metacrylate] | –
44 | 0.71 | COCC(=O)[O-].COCC(=O)[O-].[Zn+2] [Zn(II) methoxyacetate] | –
45 | 0.75 | CCCOCC(=O)[O-].CCCOCC(=O)[O-].[Zn+2] [Zn(II) propoxyacetate] | –

Reference: patent US20050032646A1, “Agents for the regulation of gametophytic self-incompatibility and a control method for the breakdown of gametophytic self-incompatibility using the agents” (priority 2002, published 2005)
